The values below come from patent publication US20140187771A1, “AMORPHOUS SOLID SALTS” (Gilead Sciences, Inc., priority 2011, published 2014).

Data set [1] in a line: Glass transition temperature (Tg) by modulated differential scanning calorimetry (mDSC). The conditions noted are these: for Tg (° C.) First heating / Tg (° C.) Second heating: mDSC, precipitated salts of Compound 1; for Tg (° C.) First heating: first heating cycle; for Tg (° C.) Second heating: second heating cycle (intrinsic Tg in dry state). The data set is classed as physicochemical. As for the experimental part:
Modulated differential scanning calorimetry (mDSC) was used to characterize salts of the invention. Solid samples were placed in hermetically sealed aluminum pan with a pinhole. Modulation amplitude of ±0.8° C. with a period of 60 sec was applied to the sample heated at 2° C./min under dried nitrogen purge using TA instruments (New Castle, Del., USA) model 1000.
Heat-cool-heat cycles were applied to allow for moisture evaporation during first heating cycle and to erase thermal history of the sample, which allowed for the determination of the intrinsic glass transition temperature (Tg) in dry state.

Data set [2] in a line: Hygroscopicity at room temperature (weight gain and visual phase transition after 24 hours at controlled RH). The class given is physicochemical. As for the experimental part: Hygroscopicity of salts of invention were measured by placing 20-50 mg of the sample in an uncapped scintillation vial. The vial was stored at ambient temperature in a Pyrex brand desiccator (VWR, International, CT). […] The relative humidity was confirmed using a digital hygrometer pen (VWR International, CT). An empty scintillation vial was also placed in the desiccator as a control. […] Visual observation of phase transition was also noted.

The mark [3] stands for this setting: 55% RH, room temperature, 24 hours.
Where [4] appears, read: 55% RH, room temperature, 24 hours, visual observation.
Setting [5] is: 75% RH, room temperature, 24 hours.
Where [6] appears, read: 75% RH, room temperature, 24 hours, visual observation.

Turning to tartarate, in data set [1], the “Tg (° C.) First heating” value turned out to be 44 °C. The “Tg (° C.) Second heating” value in data set [1] was found to be 66 °C. For the same substance, the “Tg (° C.)” value in data set [1] (spray dried salts (from acetone)) was determined as 67 °C. For the same substance, the “% weight gain” value stood at 3.23% in data set [2] (setting [3]) and 7.6% in data set [2] (setting [5]). Moreover, the Phase transition result in data set [2] (setting [4]) is “No”; in data set [2] (setting [6]), “Partial”; in data set [2] (spray dried salts, 55% RH), “no”; in data set [2] (spray dried salts, 75% RH) it was “yes”. For the same substance, the “Weight gain at 55% RH RH (%)” value in data set [2] (spray dried salts, 55% RH) was found to be 5.8%. The “Weight gain at 75% (%)” value in data set [2] (spray dried salts, 75% RH) came out at 6.3%.

Turning to tosylate, the “Tg (° C.) First heating” value in data set [1] stood at 32 °C. Also, the “Tg (° C.) Second heating” value in data set [1] was 46 °C. Also, the “% weight gain” value is listed as 3.11% in data set [2] (setting [3]) and 6.5% in data set [2] (setting [5]). In addition, the Phase transition result in data set [2] (setting [4]) is “Partial”; in data set [2] (setting [6]), “Yes”.
